Experiments:
Assay in all cases: relative viability (nuclei count vs DMSO), 5 days (fraction); higher = more cells survive
NCI-H322M = test system: NCI-H322M
In short: (§1)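 Lung cancer cell lines were pin-tool dosed in 1536-well plates on the day after seeding, with either a lone drug or a fixed anchor-drug dose plus five library-drug doses (not always all listed) in √10 steps. Nuclei were counted on 4× images after 5 days. Relative viability is the ratio of treated-well to vehicle-well nuclei counts, with each value a median of duplicate plates.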

HOP-62 = test system: HOP-62
In short: as §1

NCI-H1651 = test system: NCI-H1651
In short: as §1

NCI-H1666 = test system: NCI-H1666
In short: as §1

COR-L23 = test system: COR-L23
In short: as §1

NCI-H2126 = test system: NCI-H2126
In short: as §1

NCI-H2342 = test system: NCI-H2342
In short: as §1

NCI-H1355 = test system: NCI-H1355
In short: as §1

NCI-H661 = test system: NCI-H661
In short: as §1

NCI-H460 = test system: NCI-H460
In short: as §1

201T = test system: 201T
In short: as §1

NCI-H1944 = test system: NCI-H1944
In short: as §1

NCI-H23 = test system: NCI-H23
In short: as §1

SW 1573 = test system: SW 1573
In short: as §1

PC-3 [JPC-3] = test system: PC-3 [JPC-3]
In short: as §1

NCI-H596 = test system: NCI-H596
In short: as §1

LC-2-ad = test system: LC-2-ad
In short: as §1

NCI-H2009 = test system: NCI-H2009
In short: as §1

ChaGo-K-1 = test system: ChaGo-K-1
In short: as §1

NCI-H727 = test system: NCI-H727
In short: as §1

NCI-H2087 = test system: NCI-H2087
In short: as §1

CAL-12T = test system: CAL-12T
In short: as §1

ABC-1 = test system: ABC-1
In short: as §1

For `Oc1nc(-c2ccc(C(F)(F)F)cc2)nc2c1CSCC2` [XAV939] + O=C(c1cc(Cc2n[nH]c(=O)c3ccccc23)ccc1F)N1CCN(C(=O)C2CC2)CC1 [Olaparib] (partner 8 µM), the relative viability (NCI-H322M; first compound 0.08 µM) was 0.874, the relative viability (NCI-H322M; first compound 0.253 µM) was 0.752 and the relative viability (NCI-H322M; first compound 0.8 µM) was 0.667. It also gave a relative viability (NCI-H322M; first compound 2.53 µM) of 0.661, a relative viability (HOP-62; first compound 0.08 µM) of 0.369 and a relative viability (HOP-62; first compound 0.253 µM) of 0.351. For the same molecule, the relative viability (HOP-62; first compound 0.8 µM) was 0.502, the relative viability (HOP-62; first compound 2.53 µM) was 0.371 and the relative viability (NCI-H1651; first compound 0.08 µM) was 0.181. It also gave a relative viability (NCI-H1651; first compound 0.253 µM) of 0.19, a relative viability (NCI-H1651; first compound 0.8 µM) of 0.205 and a relative viability (NCI-H1651; first compound 2.53 µM) of 0.196. For the same molecule, the relative viability (NCI-H1666; first compound 0.08 µM) was 0.748, the relative viability (NCI-H1666; first compound 0.253 µM) was 0.741 and the relative viability (NCI-H1666; first compound 0.8 µM) was 0.745. The relative viability (NCI-H1666; first compound 2.53 µM) was 0.754, the relative viability (COR-L23; first compound 0.08 µM) was 0.321 and the relative viability (COR-L23; first compound 0.253 µM) was 0.386. For the same molecule, the relative viability (COR-L23; first compound 0.8 µM) was 0.315, the relative viability (COR-L23; first compound 2.53 µM) was 0.29 and the relative viability (NCI-H2126; first compound 0.08 µM) was 0.962. It also gave a relative viability (NCI-H2126; first compound 0.253 µM) of 0.839, a relative viability (NCI-H2126; first compound 0.8 µM) of 0.865 and a relative viability (NCI-H2126; first compound 2.53 µM) of 0.855. The relative viability (NCI-H2342; first compound 0.08 µM) was 0.47, the relative viability (NCI-H2342; first compound 0.253 µM) was 0.431 and the relative viability (NCI-H2342; first compound 0.8 µM) was 0.376. The relative viability (NCI-H2342; first compound 2.53 µM) was 0.288, the relative viability (NCI-H1355; first compound 0.08 µM) was 0.729 and the relative viability (NCI-H1355; first compound 0.253 µM) was 0.617. The relative viability (NCI-H1355; first compound 0.8 µM) was 0.692, the relative viability (NCI-H1355; first compound 2.53 µM) was 0.487 and the relative viability (NCI-H661; first compound 0.08 µM) was 0.743. For the same molecule, the relative viability (NCI-H661; first compound 0.253 µM) was 0.655, the relative viability (NCI-H661; first compound 0.8 µM) was 0.678 and the relative viability (NCI-H661; first compound 2.53 µM) was 0.708. For the same molecule, the relative viability (NCI-H460; first compound 0.08 µM) was 0.58, the relative viability (NCI-H460; first compound 0.253 µM) was 0.35 and the relative viability (NCI-H460; first compound 0.8 µM) was 0.395. The relative viability (NCI-H460; first compound 2.53 µM) was 0.271, the relative viability (201T; first compound 0.08 µM) was 0.855 and the relative viability (201T; first compound 0.253 µM) was 0.814. It also gave a relative viability (201T; first compound 0.8 µM) of 0.687, a relative viability (201T; first compound 2.53 µM) of 0.745 and a relative viability (NCI-H1944; first compound 0.08 µM) of 0.421. It also gave a relative viability (NCI-H1944; first compound 0.253 µM) of 0.279, a relative viability (NCI-H1944; first compound 0.8 µM) of 0.365 and a relative viability (NCI-H1944; first compound 2.53 µM) of 0.342. For the same molecule, the relative viability (NCI-H23; first compound 0.08 µM) was 0.323, the relative viability (NCI-H23; first compound 0.8 µM) was 0.278 and the relative viability (NCI-H23; first compound 2.53 µM) was 0.264. The relative viability (SW 1573; first compound 0.08 µM) was 0.437, the relative viability (SW 1573; first compound 0.253 µM) was 0.499 and the relative viability (SW 1573; first compound 0.8 µM) was 0.485. The relative viability (SW 1573; first compound 2.53 µM) was 0.379, the relative viability (PC-3 [JPC-3]; first compound 0.253 µM) was 0.997 and the relative viability (PC-3 [JPC-3]; first compound 0.8 µM) was 1.17. For the same molecule, the relative viability (PC-3 [JPC-3]; first compound 2.53 µM) was 1.06, the relative viability (NCI-H596; first compound 0.08 µM) was 0.769 and the relative viability (NCI-H596; first compound 0.253 µM) was 0.644. For the same molecule, the relative viability (NCI-H596; first compound 0.8 µM) was 0.776, the relative viability (NCI-H596; first compound 2.53 µM) was 0.556 and the relative viability (LC-2-ad; first compound 0.08 µM) was 0.659. It also gave a relative viability (LC-2-ad; first compound 0.253 µM) of 0.652, a relative viability (LC-2-ad; first compound 0.8 µM) of 0.685 and a relative viability (LC-2-ad; first compound 2.53 µM) of 0.553. It also gave a relative viability (NCI-H2009; first compound 0.08 µM) of 0.918, a relative viability (NCI-H2009; first compound 0.253 µM) of 0.728 and a relative viability (NCI-H2009; first compound 0.8 µM) of 0.641. It also gave a relative viability (NCI-H2009; first compound 2.53 µM) of 0.754, a relative viability (ChaGo-K-1; first compound 0.08 µM) of 0.409 and a relative viability (ChaGo-K-1; first compound 0.253 µM) of 0.392. For the same molecule, the relative viability (ChaGo-K-1; first compound 0.8 µM) was 0.384, the relative viability (ChaGo-K-1; first compound 2.53 µM) was 0.376 and the relative viability (NCI-H727; first compound 0.08 µM) was 0.706. It also gave a relative viability (NCI-H727; first compound 0.8 µM) of 0.696, a relative viability (NCI-H727; first compound 2.53 µM) of 0.678 and a relative viability (NCI-H2087; first compound 0.08 µM) of 0.625. For the same molecule, the relative viability (NCI-H2087; first compound 0.253 µM) was 0.533, the relative viability (NCI-H2087; first compound 0.8 µM) was 0.665 and the relative viability (NCI-H2087; first compound 2.53 µM) was 0.464. For the same molecule, the relative viability (CAL-12T; first compound 0.08 µM) was 0.788, the relative viability (CAL-12T; first compound 0.253 µM) was 0.699 and the relative viability (CAL-12T; first compound 0.8 µM) was 0.689. It also gave a relative viability (CAL-12T; first compound 2.53 µM) of 0.654, a relative viability (ABC-1; first compound 0.253 µM) of 0.792 and a relative viability (ABC-1; first compound 0.8 µM) of 1.25. The relative viability (ABC-1; first compound 2.53 µM) was 0.61.

From the supplement of paper PMC10307832
